Measurements as given in patent US7968098B2, “HLA-A24-binding KIF-derived peptide” (Kurume University, priority 2006, dated 2011).
Like-named read-outs stand apart in the source and are kept apart here. No end group written: not given here.

What was measured:
[1] = tested on: anti-peptide immunoglobulin G (IgG) in plasma; experiment: Anti-peptide IgG in plasma measured by the Luminex system; assay type: binding, human; conditions: for Positive cases/total cases, Patients: Table 3, IgGs reactive to peptide in plasma of glioma patients; for Positive cases/total cases, Healthy donors: Table 3, IgGs reactive to peptide in plasma of healthy donors; for Positive cases/total cases, Total: Table 3, patients plus healthy donors; for Recognition by IgGs in the plasma compared with the other peptides: plasma of glioma patients and healthy donors; for Total (IgG-positive cases/total cases): positive = >1.25 times no peptide control
Protocol: The levels of anti-peptide immunoglobulin G (IgG) were measured by the Luminex™ system as previously reported (Komatsu N et al, Scand J Clin Invest 2004; 64: 1-11). In brief, plasma was incubated with 25 μl of peptide-coupled color-coded beads (Luminex Corp., Austin, Tex., USA) for 2 h at room temperature on a plate shaker. After incubation, the mixture was washed with a vacuum manifold apparatus and incubated with 100 μl of biotinylated goat anti-human IgG (BA-3080, Vector Laboratories, Burlingame, Calif., USA) for 1 h at room temperature. The plate was then washed, and 100 μl of streptavidin-PE (S-866, Molecular Probes, Eugene, Oreg., USA) was added to each well and was incubated for 30 min at room temperature on a plate shaker. The bound beads were washed three times followed by the addition of 100 μl of Tween-PBS to each well. Fifty μl of each sample was then examined using the Luminex™ system.
Next, the abilities of the KIF-derived peptides to be recognized by IgGs of glioma patients were examined, because IgGs reactive to CTL-directed peptides are detectable in the plasma of patients with different types of cancer (Nakatsura T et al, Eur J Immunol 32: 826-836, 2002), along with that levels of IgG well correlated with clinical responses of patients who received peptide vaccination as reported previously (Mine T et al, Clin Cancer Res 10: 929-937, 2004; Yajima N et al, Clin Cancer Res 11: 5900-5911, 2005). IgGs reactive to a corresponding peptide were judged to be significant when the immunofluorescence intensity in 1:100-diluted plasma exceeded 1.25 times that of the control samples with no peptides. […] Based on these findings, these 8 KIF peptides (3 for KIF1C, 3 for KIF3C, and 2 for KIF21B) were the focus of the following experiments.

[2] = tested on: PBMCs of HLA-A24+ glioma patients; assay type: cell-based, human; conditions: for IFN-γ: vs HIV peptide
KNS-81 cells = experiment: 6-h 51Cr-release cytotoxicity assay of peptide-stimulated PBMCs / CD8+ T cells; assay type: cell-based, human; conditions: for Cytotoxicity of peptide-induced CD8+ T cells on addition of anti-HLA class I mAb / Cytotoxicity on addition of unlabeled C1R-A24 cells pre-pulsed with corresponding KIF peptide (cold inhibition): KNS-81 cells; for Cytotoxicity of peptide-induced CD8+ T cells on addition of anti-HLA class I mAb: FIG. 3A, not inhibited by anti-HLA class II (HLA-DR) or anti-CD14 mAb; for Cytotoxicity on addition of unlabeled C1R-A24 cells pre-pulsed with corresponding KIF peptide (cold inhibition): FIG. 3B, not inhibited by HIV peptide-pulsed C1R-A24 cells; for Cytotoxicity of peptide-stimulated PBMCs against KNS-81 cells: patients 3 and 5, HLA-A24+ KNS-81 vs HLA-A24- No. 11 cells and HLA-A24+ T-cell blasts
Protocol: Peptide-stimulated PBMCs were tested for their cytotoxicity against No. 11 (HLA-A24 negative) and KNS-81 (HLA-A24 positive) by a standard 6-h ^51Cr-release assay. Phytohaemagglutinin (PHA)-activated T cells (T cell blast) from HLA-A24 positive healthy donors were used as a negative control. The PBMCs were stimulated with each of the KIF peptides (10 μg/ml) in the presence of IL-2 (100 units/ml) every 3 days for 15 days, followed by incubation with IL-2 alone for an additional 15 days. After CD8^+ T cells were positively isolated using a CD8-positive isolation kit (Dynal, Oslo, Norway), 2,000 ^51Cr-labeled cells per well were cultured with effector cells in 96-round-well plates. The specific ^51Cr-release was calculated according to the following formula: % specific lysis=(test sample release−spontaneous release)×100/(maximum release−spontaneous release). Spontaneous release was determined using the supernatant of the sample incubated with no effector cells, and the maximum release was then determined by the supernatant of the sample incubated with 1% Triton X (Wako Pure Chemical Industries, Osaka, Japan). In some experiments, anti-HLA class I (W6/32, mouse IgG2a) (BioLegend, Camino Santa Fe, San Diego, Calif., USA), anti-HLA class II (HLA-DR) (L243, mouse IgG2a) (ATCC #HB-55), and anti-CD14 (JML-H14, mouse IgG2a) (established in Department of Immunology, Kurume University) mAb were added to the wells at the initiation of the culture. The specificity of peptide-stimulated PBMCs was also confirmed by a cold inhibition assay. 20,000 unlabeled C1R-A24 cells, which were pre-pulsed with either the HIV peptide or a corresponding peptide, were used as cold target cells. Unlabeled C1R-A24 cells were added at a hot to cold target ratio of […].

[3] = HLA-A24+ glioma patients, positive = P<0.05 and >100 pg/ml IFN-γ over HIV peptide
[4] = PBMCs of HLA-A24+ glioma Patient 1, 10 μg/ml peptide
[5] = PBMCs of HLA-A24+ glioma Patient 2, 10 μg/ml peptide
[6] = PBMCs of HLA-A24+ glioma Patient 3, 10 μg/ml peptide
[7] = PBMCs of HLA-A24+ glioma Patient 7, 10 μg/ml peptide
[8] = PBMCs of HLA-A24+ glioma Patient 9, 10 μg/ml peptide
[9] = PBMCs of HLA-A24+ glioma Patient 10, 10 μg/ml peptide
[10] = PBMCs of HLA-A24+ glioma Patient 4, 10 μg/ml peptide
[11] = Healthy donor 2, 1:100-diluted plasma
[12] = Healthy donor 4, 1:100-diluted plasma
[13] = glioma Patient 4, 1:100-diluted plasma
[14] = glioma Patient 8, 1:100-diluted plasma
[15] = glioma Patient 9, 1:100-diluted plasma
[16] = PBMCs of HLA-A24+ glioma Patient 5, 10 μg/ml peptide
[17] = PBMCs of HLA-A24+ glioma Patient 8, 10 μg/ml peptide

Row | Sequence | Positive cases/total cases, Patients [1] | Positive cases/total cases, Healthy donors [1] | Positive cases/total cases, Total [1] | Recognition by IgGs in the plasma compared with the other peptides [1] | Total (patients with induction of peptide-reactive CTLs) [2, 3] | IFN-γ [2, 4] [pg/mL] | IFN-γ [2, 5] [pg/mL] | IFN-γ [2, 6] [pg/mL] | IFN-γ [2, 7] [pg/mL] | IFN-γ [2, 8] [pg/mL] | IFN-γ [2, 9] [pg/mL] | IFN-γ [2, 10] [pg/mL] | IFN-γ [2, 17] [pg/mL] | further results
1 | GYASTDEEI (KIF21B 220-228 peptide) | 2/10 | 3/10 | 5/20 | more frequently | 4/10 | 0 | 29 | 56 | 51 | 0 | 0 | – | – | –
2 | HYDGIECLAI (KIF21B 621-630 peptide) | 2/10 | 5/10 | 7/20 | more frequently | 3/10 | 0 | 10 | 0 | 93 | 0 | 0 | 0 | – | –
3 | IYCERVRDL (KIF1C 149-157 peptide) | 7/10 | 8/10 | 15/20 | more frequently | 4/10 | 92 | 0 | – | – | – | 0 | 50 | 0 | Immunofluoresence intensity [1, 11]: 31.8; Immunofluoresence intensity [1, 12]: 47.8; Total (IgG-positive cases/total cases) ([1]; Table 2, glioma patients): 7/10; Total (IgG-positive cases/total cases) ([1]; Table 2, healthy donors): 8/10; Immunofluoresence intensity [1, 13]: 29.5; Immunofluoresence intensity [1, 14]: 12.3; Immunofluoresence intensity [1, 15]: 27.3; IFN-γ [2, 16]: 0 pg/mL
4 | IYCERVRDLL [KIF1C 149-158] | – | – | – | – | – | – | – | – | – | – | – | – | – | Cytotoxicity of peptide-induced CD8+ T cells on addition of anti-HLA class I mAb (KNS-81 cells): significantly inhibited; Cytotoxicity on addition of unlabeled C1R-A24 cells pre-pulsed with corresponding KIF peptide (cold inhibition) (KNS-81 cells): significantly inhibited; Cytotoxicity of peptide-stimulated PBMCs against KNS-81 cells (KNS-81 cells): higher level of cytotoxicity against HLA-A24^+ KNS-81 cells
5 | KYKAMESKL [KIF3C 512-520] | – | – | – | – | – | – | – | – | – | – | – | – | – | Cytotoxicity of peptide-induced CD8+ T cells on addition of anti-HLA class I mAb (KNS-81 cells): significantly inhibited; Cytotoxicity on addition of unlabeled C1R-A24 cells pre-pulsed with corresponding KIF peptide (cold inhibition) (KNS-81 cells): significantly inhibited; Cytotoxicity of peptide-stimulated PBMCs against KNS-81 cells (KNS-81 cells): higher level of cytotoxicity against HLA-A24^+ KNS-81 cells
6 | NYLQEQKERL (KIF3C 458-467 peptide) | 4/10 | 4/10 | 8/20 | more frequently | 3/10 | 34 | 0 | 30 | – | – | 0 | – | 38 | IFN-γ [2, 16]: 66 pg/mL; IFN-γ ([2]; PBMCs of HLA-A24+ glioma Patient 6, 10 μg/ml peptide): 55 pg/mL
7 | RFYIQMCTEL (Flu virus-derived peptide) [reference compound] | – | – | – | – | 3/10 | 29 | 0 | – | 95 | 0 | 0 | 0 | 0 | –
8 | RYADRTKQI (KIF1C 340-348 peptide) | 7/10 | 7/10 | 14/20 | more frequently | 3/10 | 66 | 16 | – | 65 | 52 | 0 | 80 | 96 | Immunofluoresence intensity [1, 11]: 21.5; Immunofluoresence intensity [1, 12]: 45.3; Immunofluoresence intensity ([1]; Healthy donor 5, 1:100-diluted plasma): 59.0; Total (IgG-positive cases/total cases) ([1]; Table 2, glioma patients): 7/10; Total (IgG-positive cases/total cases) ([1]; Table 2, healthy donors): 7/10; Immunofluoresence intensity [1, 13]: 26.0; Immunofluoresence intensity [1, 14]: 14.8; Immunofluoresence intensity [1, 15]: 17.5
9 | RYRAENIMF (KIF3C 702-710 peptide) | 7/10 | 9/10 | 16/20 | more frequently | 3/10 | 11 | 0 | 73 | – | 22 | 0 | 0 | 96 | –
10 | TYGPVFMCL [EBV, reference compound] | – | – | – | – | – | – | – | – | – | – | – | – | – | Total (patients with induction of peptide-reactive CTLs) [2]: 1/10
